Results reported in patent US7402548B2, “Benzoxazole compounds, process for producing the same and herbicides” (Kyoyu Agri Co., Ltd., priority 2000, dated 2008).

What was measured:
barnyard grass [1] = experiment: Herbicidal test for paddy field; format: in vivo, Eschinochloa crusgalli; settings: 500 g/ha, dropwise addition to paddy water at 1.5 leaf stage of barnyard grass; glass house 25° C., 3 weeks; rank 0-5 vs non-treated district
Method: (§1) Wagner pots, each having an area of 1/5000 are, were packed with Ube soil (alluvial soil) and planted with seeds or tubers of young rice plant, barnyard grass, bulrush, Cyperus serotinus Rottb., arrowhead and monochoria. Then, the pots were filled with water to a depth of 3 cm.
(§2) Each wettable powder of the desired Compounds (I) shown in Tables 1 to 21, 24, 25, 28 and 29 prepared in accordance with Example 2 was diluted with water containing a surfactant (0.05%) and subjected to dropwise addition treatment by using pipet so that an effective concentration of the compound (I) in each herbicide became 500 g/ha at 1.5 leaf stage of barnyard grass.
(§3) These plants were controlled in a glass house at an average temperature of 25° C. for 3 weeks, and then herbicidal effects thereof were investigated.
(§4) The herbicidal effects are evaluated according to the following 6 ranks as compared with non-treated district. (0: normal development, 1: Less damaged, 2: Slightly damaged, 3: Moderately damaged, 4: Severely damaged, 5: All killed). Incidentally, “-” in the column means not investigated.

livid amaranth [2] = experiment: Soil treatment test for upland field; format: in vivo, Amaranthus lividus; design: key: 0 = normal development, 5 = all killed; settings: 500 g/ha, 3 weeks, glass house 25° C.
Procedure, shortened: (§5)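 Pre-emergence soil spray, 500 g/ha, WP formulation in water + 0.05% surfactant; alluvial soil; glasshouse, avg 25° C, 3 wk. Score 0 (normal) to 5 (all killed) vs untreated.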

green foxtail [3] = experiment: Soil treatment test for upland field; format: in vivo, Setaria viridis; design: key: 0 = normal development, 5 = all killed; settings: 500 g/ha, 3 weeks, glass house 25° C.
Procedure, shortened: as §5

livid amaranth [4] = experiment: Foliar spread test for upland field; format: in vivo, Amaranthus lividus; design: key: 0 = normal development, 5 = all killed (6 ranks vs. untreated); settings: foliar spray, 500 ppm, 3 weeks, glass house 25° C.
Procedure, shortened: (§6)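 Plants grown about 2 weeks at 25 °C in volcanic ash soil were sprayed with wettable powder diluted to 500 ppm in water with 0.5% surfactant. After 3 weeks at 25 °C, damage was scored 0 (normal) to 5 (all killed) against untreated plants.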

bulrush = experiment: Herbicidal test for paddy field; format: in vivo, Scrips juncoides; settings: 500 g/ha, dropwise addition to paddy water at 1.5 leaf stage of barnyard grass; glass house 25° C., 3 weeks; rank 0-5 vs non-treated district
Method: as §1, §2, §3, §4

velvetleaf [5] = experiment: Foliar spread test for upland field; format: in vivo, Abutilon theophrasti; design: key: 0 = normal development, 5 = all killed (6 ranks vs. untreated); settings: foliar spray, 500 ppm, 3 weeks, glass house 25° C.
Procedure, shortened: as §6

common lambsquarters [6] = experiment: Soil treatment test for upland field; format: in vivo, Chenopodium album; design: key: 0 = normal development, 5 = all killed; settings: 500 g/ha, 3 weeks, glass house 25° C.
Procedure, shortened: as §5

blackgrass [7] = experiment: Foliar spread test for upland field; format: in vivo, Alopecurus aegualis; design: key: 0 = normal development, 5 = all killed (6 ranks vs. untreated); settings: foliar spray, 500 ppm, 3 weeks, glass house 25° C.
Procedure, shortened: as §6

annual bluegrass [8] = experiment: Soil treatment test for upland field; format: in vivo, Poa annua; design: key: 0 = normal development, 5 = all killed; settings: 500 g/ha, 3 weeks, glass house 25° C.
Procedure, shortened: as §5

barnyardgrjass = experiment: Foliar spread test for upland field; format: in vivo, Eschinochloa crusgalli; design: key: 0 = normal development, 5 = all killed (6 ranks vs. untreated); settings: foliar spray, 500 ppm, 3 weeks, glass house 25° C.
Procedure, shortened: as §6

Large crabgrass [9] = experiment: Foliar spread test for upland field; format: in vivo, Digitaria adscendens; design: key: 0 = normal development, 5 = all killed (6 ranks vs. untreated); settings: foliar spray, 500 ppm, 3 weeks, glass house 25° C.
Procedure, shortened: as §6

annual bluegrass [10] = experiment: Foliar spread test for upland field; format: in vivo, Poa annua; design: key: 0 = normal development, 5 = all killed (6 ranks vs. untreated); settings: foliar spray, 500 ppm, 3 weeks, glass house 25° C.
Procedure, shortened: as §6

solgum [11] = experiment: Soil treatment test for upland field; format: in vivo; design: key: 0 = normal development, 5 = all killed; settings: 500 g/ha, 3 weeks, glass house 25° C.
Procedure, shortened: as §5

corn [12] = experiment: Soil treatment test for upland field; format: in vivo; design: key: 0 = normal development, 5 = all killed; settings: 500 g/ha, 3 weeks, glass house 25° C.
Procedure, shortened: as §5

wheat [13] = experiment: Soil treatment test for upland field; format: in vivo; design: key: 0 = normal development, 5 = all killed; settings: 500 g/ha, 3 weeks, glass house 25° C.
Procedure, shortened: as §5

sugar beat [14] = experiment: Soil treatment test for upland field; format: in vivo; design: key: 0 = normal development, 5 = all killed; settings: 500 g/ha, 3 weeks, glass house 25° C.
Procedure, shortened: as §5

morning glory [15] = experiment: Foliar spread test for upland field; format: in vivo, Ipomoea spps.; design: key: 0 = normal development, 5 = all killed (6 ranks vs. untreated); settings: foliar spray, 500 ppm, 3 weeks, glass house 25° C.
Procedure, shortened: as §6

green foxtail [16] = experiment: Foliar spread test for upland field; format: in vivo, Setaria viridis; design: key: 0 = normal development, 5 = all killed (6 ranks vs. untreated); settings: foliar spray, 500 ppm, 3 weeks, glass house 25° C.
Procedure, shortened: as §6

cotton = experiment: Foliar spread test for upland field; format: in vivo; design: key: 0 = normal development, 5 = all killed (6 ranks vs. untreated); settings: foliar spray, 500 ppm, 3 weeks, glass house 25° C.
Procedure, shortened: as §6

solgum [17] = experiment: Foliar spread test for upland field; format: in vivo; design: key: 0 = normal development, 5 = all killed (6 ranks vs. untreated); settings: foliar spray, 500 ppm, 3 weeks, glass house 25° C.
Procedure, shortened: as §6

soybean [18] = experiment: Foliar spread test for upland field; format: in vivo; design: key: 0 = normal development, 5 = all killed (6 ranks vs. untreated); settings: foliar spray, 500 ppm, 3 weeks, glass house 25° C.
Procedure, shortened: as §6

corn [19] = experiment: Foliar spread test for upland field; format: in vivo; design: key: 0 = normal development, 5 = all killed (6 ranks vs. untreated); settings: foliar spray, 500 ppm, 3 weeks, glass house 25° C.
Procedure, shortened: as §6

wheat [20] = experiment: Foliar spread test for upland field; format: in vivo; design: key: 0 = normal development, 5 = all killed (6 ranks vs. untreated); settings: foliar spray, 500 ppm, 3 weeks, glass house 25° C.
Procedure, shortened: as §6

sugar beat [21] = experiment: Foliar spread test for upland field; format: in vivo; design: key: 0 = normal development, 5 = all killed (6 ranks vs. untreated); settings: foliar spray, 500 ppm, 3 weeks, glass house 25° C.
Procedure, shortened: as §6

blackgrass [22] = experiment: Soil treatment test for upland field; format: in vivo, Alopecurus aegualis; design: key: 0 = normal development, 5 = all killed; settings: 500 g/ha, 3 weeks, glass house 25° C.
Procedure, shortened: as §5

morning glory [23] = experiment: Soil treatment test for upland field; format: in vivo, Ipomoea spps.; design: key: 0 = normal development, 5 = all killed; settings: 500 g/ha, 3 weeks, glass house 25° C.
Procedure, shortened: as §5

velvetleaf [24] = experiment: Soil treatment test for upland field; format: in vivo, Abutilon theophrasti; design: key: 0 = normal development, 5 = all killed; settings: 500 g/ha, 3 weeks, glass house 25° C.
Procedure, shortened: as §5

barnyard grass [25] = experiment: Soil treatment test for upland field; format: in vivo, Eschinochloa crusgalli; design: key: 0 = normal development, 5 = all killed; settings: 500 g/ha, 3 weeks, glass house 25° C.
Procedure, shortened: as §5

Large crabgrass [26] = experiment: Soil treatment test for upland field; format: in vivo, Digitaria adscendens; design: key: 0 = normal development, 5 = all killed; settings: 500 g/ha, 3 weeks, glass house 25° C.
Procedure, shortened: as §5

common lambsquarters [27] = experiment: Foliar spread test for upland field; format: in vivo, Chenopodium album; design: key: 0 = normal development, 5 = all killed (6 ranks vs. untreated); settings: foliar spray, 500 ppm, 3 weeks, glass house 25° C.
Procedure, shortened: as §6

soybean [28] = experiment: Soil treatment test for upland field; format: in vivo; design: key: 0 = normal development, 5 = all killed; settings: 500 g/ha, 3 weeks, glass house 25° C.
Procedure, shortened: as §5

Compound | Effects Livid amaranth (livid amaranth [2]) | Effects Green foxtail (green foxtail [3]) | Effects Livid amaranth (livid amaranth [4]) | Effects Velvetleaf (velvetleaf [5]) | Effects Common lambsquarters (common lambsquarters [6]) | Effects Blackgrass (blackgrass [7]) | Effects Annual bluegrass (annual bluegrass [8]) | Effects Barnyardgrass (barnyardgrjass) | Effects Large crabgrass (Large crabgrass [9]) | Effects Annual bluegrass (annual bluegrass [10]) | Effects Solgum (solgum [11]) | Effects Corn (corn [12]) | Effects Wheat (wheat [13]) | Effects Sugar beat (sugar beat [14]) | Effects Morning glory (morning glory [15]) | Effects Green foxtail (green foxtail [16]) | Effects Sotton (cotton) | Effects Solgum (solgum [17]) | Effects Soybean (soybean [18]) | Effects Corn (corn [19]) | also measured
CCC(=Cc1cccc(C(F)(F)F)c1)c1nc2cc(C)ccc2o1 [I-c-76] | 5 | 5 | 5 | 3 | 5 | 2 | 5 | 2 | 4 | 2 | 3 | 1 | 0 | 0 | 5 | 4 | 3 | 2 | 5 | 2 | Effects Barnyardgrass (barnyard grass [1]): 4; Effects Bulrush (bulrush): 3; Effects Wheat (wheat [20]): 2; Effects Sugar beat (sugar beat [21]): 4; Effects Blackgrass (blackgrass [22]): 5; Effects Morning glory (morning glory [23]): 1; Effects Velvetleaf (velvetleaf [24]): 5; Effects Barnyardgrass (barnyard grass [25]): 4; Effects Large crabgrass (Large crabgrass [26]): 5; Effects Common lambsquarters (common lambsquarters [27]): 4
CC(=Cc1cccc(C(F)(F)F)c1)c1nc2cc(C#N)c(F)cc2o1 [I-c-135] | 5 | 5 | 5 | 4 | 5 | 5 | 5 | 3 | 4 | 5 | 1 | 1 | 1 | 5 | 5 | 5 | 4 | 3 | 4 | 2 | Effects Soybean (soybean [28]): 2; Effects Wheat (wheat [20]): 2; Effects Sugar beat (sugar beat [21]): 5; Effects Blackgrass (blackgrass [22]): 5; Effects Morning glory (morning glory [23]): 4; Effects Velvetleaf (velvetleaf [24]): 5; Effects Barnyardgrass (barnyard grass [25]): 4; Effects Large crabgrass (Large crabgrass [26]): 5; Effects Common lambsquarters (common lambsquarters [27]): 5
CCC(=Cc1cccc(C(F)(F)F)c1)c1nc2cc(F)ccc2o1 [I-c-42] | 5 | 5 | 5 | 3 | 5 | 3 | 5 | 2 | 4 | 3 | 5 | 1 | 0 | 5 | 4 | 4 | 3 | 2 | 5 | 3 | Effects Barnyardgrass (barnyard grass [1]): 5; Effects Bulrush (bulrush): 5; Effects Wheat (wheat [20]): 2; Effects Sugar beat (sugar beat [21]): 4; Effects Blackgrass (blackgrass [22]): 5; Effects Morning glory (morning glory [23]): 3; Effects Velvetleaf (velvetleaf [24]): 5; Effects Barnyardgrass (barnyard grass [25]): 5; Effects Large crabgrass (Large crabgrass [26]): 5; Effects Common lambsquarters (common lambsquarters [27]): 5
CCCC(=Cc1cccc(C(F)(F)F)c1)c1nc2cc(C(F)(F)F)ccc2o1 [I-c-88] | 5 | 5 | 5 | 4 | 5 | 5 | 5 | 2 | 4 | 4 | 4 | 3 | 2 | 5 | 5 | 5 | 5 | 3 | 5 | 4 | Effects Soybean (soybean [28]): 5; Effects Wheat (wheat [20]): 2; Effects Sugar beat (sugar beat [21]): 5; Effects Blackgrass (blackgrass [22]): 5; Effects Morning glory (morning glory [23]): 5; Effects Velvetleaf (velvetleaf [24]): 5; Effects Barnyardgrass (barnyard grass [25]): 5; Effects Large crabgrass (Large crabgrass [26]): 5; Effects Common lambsquarters (common lambsquarters [27]): 5
